Measurements from patent publication US6103888A, “Mammalian cationic proteins having lipopolysaccharide binding and anti-coagulant activity” (priority 1999, dated 2000).

Tests used:
human monocytes = experiment: TNF release from LPS and IFNγ stimulated monocytes; assay type: cell-based
[1] = test system: Salmonella minnesota ReLPS sensitized sheep erythrocytes; experiment: LPS hemagglutination assay (MAC); assay type: binding
Protocol: (§1) For hemagglutination assays, erythrocytes were sensitized with LPS as follows. One ml of 1% erythrocyte suspension (human 0 type, C3H/HeN mouse or sheep) was mixed with 0.2 ml of LPS solution and incubated at 37° C. for 30 min, followed by washing with phosphate buffered saline (PBS), and then the concentration of suspension was adjusted to 1.0%. In the case of S-LPS, the solution was heated at 100° C. for 1 hour before sensitization of erythrocytes. […] Activity of CAP was expressed as a minimum agglutinating concentration (MAC) of CAP. According to the method of Kirikae et al. (1986) Microbiol. Immunol. 30:269-274, 50 μl of 2-fold serial dilution of Re-LPS was added to 50 μl of 1.0% rabbit erythrocyte suspension, and incubated at 37° C. for 3 hour. Minimum agglutinating concentration of Re-LPS was expressed as 1 HA unit.

E. coli 0111:B4 LPS = experiment: Inhibition of RNIP-mediated hemagglutination by LPS preparation; assay type: binding; conditions: Peptide #36-1 16 μg/ml, RNIP (#197) 25 μg/ml preincubated with LPS 37° 30 minutes
Protocol: as §1
(§2) Another series of experiments was performed to determine if the #36-1 and #197 (RNIP) peptides were capable of binding to LPS from various species of Gram-negative bacteria. For these experiments, sheep red blood cells were sensitized with Salmonella minnesota Re-LPS. Peptides #36-1 and #197 (RNIP) were preincubated with various preparations of LPS. Both peptides bind to a diverse group of lipopolysaccharides.
(§3) +Peptide #361 (16 μg/ml) and RNIP (#197) (25 μg/ml) were
(§4) preincubated with each LPS preparation at 37° for 30 minutes, and
(§5) each reaction mixture was added to sheep erythrocytes sensitized with […]

E. coli 0127:B8 LPS = experiment: as above; assay type: binding; conditions: Peptide #36-1 16 μg/ml, RNIP (#197) 25 μg/ml preincubated with LPS 37° 30 minutes
Protocol: as §1, §2, §3, §4, §5

E. coli 055:B5 LPS = experiment: as above; assay type: binding; conditions: Peptide #36-1 16 μg/ml, RNIP (#197) 25 μg/ml preincubated with LPS 37° 30 minutes
Protocol: as §1, §2, §3, §4, §5

E. coli J5 LPS = experiment: as above; assay type: binding; conditions: Peptide #36-1 16 μg/ml, RNIP (#197) 25 μg/ml preincubated with LPS 37° 30 minutes
Protocol: as §1, §2, §3, §4, §5

[2] = test system: Klebsiella pneumoniae LPS; experiment: as above; assay type: binding; conditions: Peptide #36-1 16 μg/ml, RNIP (#197) 25 μg/ml preincubated with LPS 37° 30 minutes
Protocol: as §1, §2, §3, §4, §5

[3] = test system: Pseudomonas aeruginosa F-D Type I LPS; experiment: as above; assay type: binding; conditions: Peptide #36-1 16 μg/ml, RNIP (#197) 25 μg/ml preincubated with LPS 37° 30 minutes
Protocol: as §1, §2, §3, §4, §5

[4] = test system: Salmonella minnesota R595 LPS; experiment: as above; assay type: binding; conditions: Peptide #36-1 16 μg/ml, RNIP (#197) 25 μg/ml preincubated with LPS 37° 30 minutes
Protocol: as §1, §2, §3, §4, §5

E. coli (HB101) = experiment: Bacterial proliferation, 3H-thymidine incorporation assay; assay type: cell-based; conditions: for Percent inhibition of proliferation: E. coli (HB101)
Protocol: (§6) Bacteria were grown in trypticase broth overnight.
(§7) To corroborate the anti-bacterial activity shown in the CFU assays, inhibition of proliferation of bacteria was tested directly using a ^3 H-thymidine incorporation assay. […] In summary although there is some strain to strain variation in the IC50, all of the Gram-negativestrains tested in two different types of assays were sensitive to these anti-microbial peptides.

Klebsiella pneumoniae = experiment: as above; assay type: cell-based
Protocol: as §6, §7

Pseudomonas aeruginosa = experiment: as above; assay type: cell-based
Protocol: as §6, §7

Pseudomonas apacia = experiment: as above; assay type: cell-based
Protocol: as §6, §7

[5] = test system: Staphylococcus aureus, coagulase positive; experiment: as above; assay type: cell-based
Protocol: as §6, §7

Streptococcus pneumoniae = experiment: as above; assay type: cell-based
Protocol: as §6, §7

Streptococcus pyogenes = experiment: as above; assay type: cell-based
Protocol: as §6, §7

factor Xa = molecular target: T1, factor Xa (Homo sapiens, UniProt P00742); experiment: Direct Xa inhibition using Xa substrate S2222; assay type: biochemical; conditions: concentrations over 10 μg/ml
T1 construct: purchased Sigma Chemical Co., St. Louis, Mo
T1 sequence (P00742 235-488 limits assumed): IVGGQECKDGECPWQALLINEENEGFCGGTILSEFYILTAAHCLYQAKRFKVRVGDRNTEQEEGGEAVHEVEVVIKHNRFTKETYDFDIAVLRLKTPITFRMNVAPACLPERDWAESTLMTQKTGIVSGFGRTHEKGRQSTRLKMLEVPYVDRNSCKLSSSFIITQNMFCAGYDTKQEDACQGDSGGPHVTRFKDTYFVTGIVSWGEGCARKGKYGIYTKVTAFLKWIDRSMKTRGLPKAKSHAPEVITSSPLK
T1 sequence (P00742 41-179 limits assumed): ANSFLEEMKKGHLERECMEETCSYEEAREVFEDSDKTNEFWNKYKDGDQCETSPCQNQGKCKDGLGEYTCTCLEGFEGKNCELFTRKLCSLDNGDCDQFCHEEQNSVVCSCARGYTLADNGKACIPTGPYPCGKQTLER
Excerpt: Clotting method: Human plasma (Ortho plasma control, Ortho Diagnostic Co.). ATPP reagent(Organo-technika, Tokyo, Japan). Standard tissue factor, rabbit brain thromboplastin (Simplastin, ONO Pharmaceutical, Tokyo, Japan). Purified human factor VII, factor X, factor Xa (Sigma Chemical Co., St. Louis, Mo.). Russell Viper venom (RVV) and Echis Carinatus venom (ECV, Sigma Co.).
Synthetic chromogenic substrate method: Substrate for factor Xa, S2222 (Kabi, Bz-Ile-Glu-Arg-pNA) was used. Substrate for factor II (prothrombin), Boc-Val-Pro-Arg-pNA (Sigma Chemical Co.) was used.

prothrombin (factor II) = prothrombin (factor II) (Homo sapiens, UniProt P00734); experiment: Prothrombin activation by Echis Carinatus venom (ECV); assay type: biochemical
Protocol: Prothrombin activation by Echis Carinatus venom (ECV). A reaction mixture of prothrombin (factor II) (0.1 unit/ml, 200 μl), ECV (1 unit/ml, 200 μl), various concentration of peptide (70 μl), 50 μl of 25 mM-CaCl2 and 180 μl of Tris buffer was incubated at 37° C. for 10 min. To 300 μl of the reaction mixture, 60 μl of 4 mM-thrombin substrate and 240 μl of buffer was added and further incubated for 15 min.

E. coli O9:K39 K- strain = experiment: Antibacterial CFU assay

“RNIP: rabbit reactive nitrogen inhibitory protein, amino acids 135-171 of SEQ ID NO:4; purified from granulocytes (Tables 1-3) or synthetic (#197) (GLRKRLRKFRNKIKEKLKKIGQKIQGLLPKLAPRTDY)” showed a TNF (human monocytes; Human IFNγ (100 U), CAP (1:1), stimulus alone 2.0) of 0.27 ng/mL, a TNF (human monocytes; Human IFNγ (100 U), CAP (1:10), stimulus alone 2.0) of 0.35 ng/mL and a TNF (human monocytes; Human IFNγ (100 U), CAP (1:100), stimulus alone 2.0) of 0.35 ng/mL. It also gave a TNF (human monocytes; LPS (10 ng/ml), CAP (1:1), stimulus alone 1.0) of 0.12 ng/mL, a TNF (human monocytes; LPS (10 ng/ml), CAP (1:10), stimulus alone 1.0) of 0.34 ng/mL and a TNF (human monocytes; LPS (10 ng/ml), CAP (1:100), stimulus alone 1.0) of 0.23 ng/mL. The “Hemagglutination [MAC], minimum agglutinating concentration” value [1] was 7.9 µg/mL, the “MIC, minimal inhibitory concentration of LPS” value (E. coli 0111:B4 LPS) was 31.3 µg/mL and the “MIC, minimal inhibitory concentration of LPS” value (E. coli 0127:B8 LPS) was 62.5 µg/mL. The “MIC, minimal inhibitory concentration of LPS” value (E. coli 055:B5 LPS) was 62.5 µg/mL, the “MIC, minimal inhibitory concentration of LPS” value (E. coli J5 LPS) was 15.6 µg/mL and the “MIC, minimal inhibitory concentration of LPS” value [2] was 62.5 µg/mL. For the same substance, the “MIC, minimal inhibitory concentration of LPS” value [3] was 15.6 µg/mL, the “MIC, minimal inhibitory concentration of LPS” value [4] was 62.5 µg/mL and the “Percent inhibition of proliferation” value (E. coli (HB101); RNIP 0.6 μg/ml) was 81%. For the same substance, the “Percent inhibition of proliferation” value (E. coli (HB101); RNIP 1.25 μg/ml) was 88%, the “Percent inhibition of proliferation” value (E. coli (HB101); RNIP 2.5 μg/ml) was 99% and the “Percent inhibition of proliferation” value (E. coli (HB101); RNIP 5.0 μg/ml) was 99%. For the same substance, the “Inhibition (%) of E. coli (HB101) proliferation” value (from here on “Inhibition (%) of E. coli”) (E. coli (HB101); RNIP 2.5 μg/ml, FCS concentration 0 %) was 94 ± 10.3%, the “Inhibition (%) of E. coli” value (E. coli (HB101); RNIP 2.5 μg/ml, FCS concentration 1 %) was 91 ± 10.9% and the “Inhibition (%) of E. coli” value (E. coli (HB101); RNIP 2.5 μg/ml, FCS concentration 5 %) was 87 ± 3.1%. The “Inhibition (%) of E. coli” value (E. coli (HB101); RNIP 2.5 μg/ml, FCS concentration 10 %) was 78 ± 5.5%, the “Percent inhibition of proliferation” value (Klebsiella pneumoniae; RNIP 0.6 μg/ml) was 4% and the “Percent inhibition of proliferation” value (Klebsiella pneumoniae; RNIP 1.25 μg/ml) was 14%. The “Percent inhibition of proliferation” value (Klebsiella pneumoniae; RNIP 2.5 μg/ml) was 17%, the “Percent inhibition of proliferation” value (Klebsiella pneumoniae; RNIP 5.0 μg/ml) was 60% and the “Percent inhibition of proliferation” value (Pseudomonas aeruginosa; RNIP 0.6 μg/ml) was 75%. For the same substance, the “Percent inhibition of proliferation” value (Pseudomonas aeruginosa; RNIP 1.25 μg/ml) was 82%, the “Percent inhibition of proliferation” value (Pseudomonas aeruginosa; RNIP 2.5 μg/ml) was 96% and the “Percent inhibition of proliferation” value (Pseudomonas aeruginosa; RNIP 5.0 μg/ml) was 99%. For the same substance, the “Percent inhibition of proliferation” value (Pseudomonas apacia; RNIP 0.6 μg/ml) was 81%, the “Percent inhibition of proliferation” value (Pseudomonas apacia; RNIP 1.25 μg/ml) was 80% and the “Percent inhibition of proliferation” value (Pseudomonas apacia; RNIP 2.5 μg/ml) was 99%. The “Percent inhibition of proliferation” value (Pseudomonas apacia; RNIP 5.0 μg/ml) was 99%, the “Percent inhibition of proliferation” value ([5]; RNIP 0.6 μg/ml) was 23% and the “Percent inhibition of proliferation” value ([5]; RNIP 1.25 μg/ml) was 57%. For the same substance, the “Percent inhibition of proliferation” value ([5]; RNIP 2.5 μg/ml) was 72%, the “Percent inhibition of proliferation” value ([5]; RNIP 5.0 μg/ml) was 83% and the “Percent inhibition of proliferation” value (Streptococcus pneumoniae; RNIP 0.6 μg/ml) was 31%. For the same substance, the “Percent inhibition of proliferation” value (Streptococcus pneumoniae; RNIP 1.25 μg/ml) was 47%, the “Percent inhibition of proliferation” value (Streptococcus pneumoniae; RNIP 2.5 μg/ml) was 68% and the “Percent inhibition of proliferation” value (Streptococcus pneumoniae; RNIP 5.0 μg/ml) was 93%. The “Percent inhibition of proliferation” value (Streptococcus pyogenes; RNIP 0.6 μg/ml) was 74%, the “Percent inhibition of proliferation” value (Streptococcus pyogenes; RNIP 1.25 μg/ml) was 79% and the “Percent inhibition of proliferation” value (Streptococcus pyogenes; RNIP 2.5 μg/ml) was 90%. For the same substance, the “Percent inhibition of proliferation” value (Streptococcus pyogenes; RNIP 5.0 μg/ml) was 96%, the “direct Xa inhibition (in words)” value (factor Xa) was “No evidence of direct Xa inhibition” and the “inhibition of Echis carinatus venom activation of purified factor II to IIa (in words)” value (prothrombin (factor II)) was “inhibited”. For the same substance, the “IC50, anti-bacterial activity” value (E. coli O9:K39 K- strain) was 0.68 µg/mL and the IC50 (E. coli O9:K39 K- strain; read-out: IC50, anti-bacterial activity) was 110 nM.
